Tests used:
[1] = test system: Corn Earworm (CEW) (Helicoverpa zea); test: Bioassays on Corn Earworm (CEW), 128-well diet tray assay; type: in vivo; settings: 168 h, 50 μg/cm^2 test compound on artificial diet, second instar larvae, 25° C., five to seven days, average of eight wells, read-out: CEW Rating (% mortality)
How it was run: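 Second-instar larvae (one to five per well) placed on artificial diet treated with 50 μg/cm^2 compound in 90:10 acetone-water, dried; eight wells per compound. Held at 25° C, 14:10 light-dark, five to seven days; percent mortality averaged over wells.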

[2] = test system: Beet Armyworm (BAW) (Spodoptera exigua); test: Bioassays on Beet Armyworm (BAW), 128-well diet tray assay; type: in vivo; settings: 168 h, 50 μg/cm^2 test compound on artificial diet, second instar larvae, 25° C., five to seven days, average of eight wells, read-out: BAW Rating (% mortality)
How it was run: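 Second-instar larvae (1–5 per well) on artificial diet surface-treated with 50 μg/cm^2 compound applied in 90:10 acetone-water and dried; eight wells per compound. Held 5–7 days at 25° C., 14:10 light-dark. Percent mortality scored per well and averaged over eight wells.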

Work on `O=C(NCc1ncc(/C=C/C(c2cc(Cl)c(Cl)c(Cl)c2)C(F)(F)F)cc1Cl)C1CC1` (stereo not shown) [CC45] yielded a mortality at 50 µg/cm2 [1] of 50 to 100% and a mortality at 50 µg/cm2 [2] of 50 to 100%.

`O=C(CC(F)(F)F)NCc1ccc(/C=C/C(c2cc(Cl)c(Cl)c(Cl)c2)C(F)(F)F)c2ccccc12` (stereo not shown) [CC46, (E)-3,3,3-trifluoro-N-((4-(4,4,4-trifluoro-3-(3,4,5-trichlorophenyl)but-1-en-1-yl)naphthalen-1-yl)methyl)propanamide] gave a mortality at 50 µg/cm2 [1] of 50 to 100% and a mortality at 50 µg/cm2 [2] of 0%.

Work on `O=C(NCc1ccc(/C=C/C(c2cc(Cl)cc(Cl)c2)C(F)(F)F)c2ccccc12)C1CC1` (stereo not shown) [CC47] yielded a mortality at 50 µg/cm2 [1] of 0% and a mortality at 50 µg/cm2 [2] of 0%.

Work on `O=C(NCc1ccc(/C=C/C(c2cc(Cl)c(Cl)c(Cl)c2)C(F)(F)F)c2ccccc12)C1CC1` (stereo not shown) [CC48] yielded a mortality at 50 µg/cm2 [1] of 0% and a mortality at 50 µg/cm2 [2] of 0%.

Compound `CCNC(=O)NCc1ccc(/C=C/C(c2cc(Cl)c(Cl)c(Cl)c2)C(F)(F)F)c2ccccc12` (stereo not shown) [CC49, (E)-1-ethyl-3-((4-(4,4,4-trifluoro-3-(3,4,5-trichlorophenyl)but-1-en-1-yl)naphthalen-1-yl)methyl)urea] has a mortality at 50 µg/cm2 [1] of 0% and a mortality at 50 µg/cm2 [2] of 0%.

In the case of `O=C(NNc1ccc(/C=C/C(c2cc(Cl)c(Cl)c(Cl)c2)C(F)(F)F)cc1)C1CC1` (stereo not shown) [CC50, (E)-N′-(4-(4,4,4-trifluoro-3-(3,4,5-trichlorophenyl)but-1-en-1-yl)phenyl)cyclopropanecarbohydrazide], the mortality at 50 µg/cm2 [1] is reported as 50 to 100% and the mortality at 50 µg/cm2 [2] is reported as 50 to 100%.

`O=C(CC(F)(F)F)NNc1ccc(/C=C/C(c2cc(Cl)c(Cl)c(Cl)c2)C(F)(F)F)cc1` (stereo not shown) [CC51] was tested, and the mortality at 50 µg/cm2 [1] was 50 to 100% and the mortality at 50 µg/cm2 [2] was 50 to 100%.

In the case of `O=C(NOc1ccc(/C=C/C(c2cc(Cl)c(Cl)c(Cl)c2)C(F)(F)F)cc1)C1CC1` (stereo not shown) [CC52, (E)-N-(4-(4,4,4-trifluoro-3-(3,4,5-trichlorophenyl)but-1-en-1-yl)phenoxy)cyclopropanecarboxamide], the mortality at 50 µg/cm2 [1] is reported as 0% and the mortality at 50 µg/cm2 [2] is reported as 50 to 100%.

With `O=C(CC(F)(F)F)NOc1ccc(/C=C/C(c2cc(Cl)c(Cl)c(Cl)c2)C(F)(F)F)cc1` (stereo not shown) [CC53] the mortality at 50 µg/cm2 [1] was 0% and the mortality at 50 µg/cm2 [2] was 0%.

`O=C(CC(F)(F)F)NCc1ccc(/C=C\C(c2cc(Cl)c(Cl)c(Cl)c2)C(F)(F)F)cc1` (stereo not shown) [CC54, (Z)-3,3,3-trifluoro-N-(4-(4,4,4-trifluoro-3-(3,4,5-trichlorophenyl)but-1-en-1-yl)benzyl)propanamide] was tested, and the mortality at 50 µg/cm2 [1] was 50 to 100% and the mortality at 50 µg/cm2 [2] was 50 to 100%.

For `FC(F)(F)C(/C=C/c1ccc(-n2cncn2)cc1)c1cc(Cl)cc(Cl)c1` (stereo not shown) [DC1, (E)-1-(4-(3-(3,5-dichlorophenyl)-4,4,4-trifluorobut-1-en-1-yl)phenyl)-1H-1,2,4-triazole], the mortality at 50 µg/cm2 [1] was 50 to 100% and the mortality at 50 µg/cm2 [2] was 50 to 100%.

`FC(F)(F)C(/C=C/c1ccc(-n2cncn2)cc1)c1cccc(Cl)c1` (stereo not shown) [DC2] was tested, and the mortality at 50 µg/cm2 [1] was 0% and the mortality at 50 µg/cm2 [2] was 0%.

In the case of `FC(F)(F)C(/C=C/c1ccc(-n2cncn2)cc1)c1ccccc1` (stereo not shown) [DC3], the mortality at 50 µg/cm2 [1] is reported as 0% and the mortality at 50 µg/cm2 [2] is reported as 0 to 50%.

`FC(F)(F)C(/C=C/c1ccc(-n2cncn2)cc1)c1ccc(Cl)cc1` (stereo not shown) [DC4] showed a mortality at 50 µg/cm2 [1] of 0% and a mortality at 50 µg/cm2 [2] of 50 to 100%.

`Cc1ccc(C(/C=C/c2ccc(-n3cncn3)cc2)C(F)(F)F)cc1` (stereo not shown) [DC5] gave a mortality at 50 µg/cm2 [1] of 0% and a mortality at 50 µg/cm2 [2] of 0%.

With `COc1ccc(C(/C=C/c2ccc(-n3cncn3)cc2)C(F)(F)F)cc1` (stereo not shown) [DC6] the mortality at 50 µg/cm2 [1] was 0% and the mortality at 50 µg/cm2 [2] was 0%.

`Fc1ccc(C(/C=C/c2ccc(-n3cncn3)cc2)C(F)(F)F)cc1` (stereo not shown) [DC7] was tested, and the mortality at 50 µg/cm2 [1] was 0% and the mortality at 50 µg/cm2 [2] was 50 to 100%.

In the case of `Fc1cc(F)cc(C(/C=C/c2ccc(-n3cncn3)cc2)C(F)(F)F)c1` (stereo not shown) [DC8], the mortality at 50 µg/cm2 [1] is reported as 0% and the mortality at 50 µg/cm2 [2] is reported as 50 to 100%.

`Fc1cccc(C(/C=C/c2ccc(-n3cncn3)cc2)C(F)(F)F)c1` (stereo not shown) [DC9] gave a mortality at 50 µg/cm2 [1] of 0% and a mortality at 50 µg/cm2 [2] of 0%.

`Fc1ccccc1C(/C=C/c1ccc(-n2cncn2)cc1)C(F)(F)F` (stereo not shown) [DC10] was tested, and the mortality at 50 µg/cm2 [1] was 0% and the mortality at 50 µg/cm2 [2] was 0%.

`Cc1cc(C)cc(C(/C=C/c2ccc(-n3cncn3)cc2)C(F)(F)F)c1` (stereo not shown) [DC11] showed a mortality at 50 µg/cm2 [1] of 0% and a mortality at 50 µg/cm2 [2] of 50 to 100%.

For `FC(F)(F)C(/C=C/c1ccc(-n2cncn2)cc1)c1ccc(Cl)c(Cl)c1` (stereo not shown) [DC12], the mortality at 50 µg/cm2 [1] was 50 to 100% and the mortality at 50 µg/cm2 [2] was 50 to 100%.

For `FC(F)(F)C(/C=C/c1ccc(-n2cncn2)cc1)c1ccc(Cl)cc1Cl` (stereo not shown) [DC13], the mortality at 50 µg/cm2 [1] was 50 to 100% and the mortality at 50 µg/cm2 [2] was 50 to 100%.

In the case of `FC(F)(F)C(/C=C/c1ccc(-n2cncn2)cc1)c1cccc(Cl)c1Cl` (stereo not shown) [DC14], the mortality at 50 µg/cm2 [1] is reported as 0% and the mortality at 50 µg/cm2 [2] is reported as 0%.

`FC(F)(F)C(/C=C/c1ccc(-n2cncn2)cc1)c1cc(Cl)ccc1Cl` (stereo not shown) [DC15] was tested, and the mortality at 50 µg/cm2 [1] was 0% and the mortality at 50 µg/cm2 [2] was 0%.

`FC(F)(F)c1cc(C(/C=C/c2ccc(-n3cncn3)cc2)C(F)(F)F)cc(C(F)(F)F)c1` (stereo not shown) [DC16] gave a mortality at 50 µg/cm2 [1] of 50 to 100% and a mortality at 50 µg/cm2 [2] of 50 to 100%.

`FC(F)(F)C(/C=C/c1ccc(-n2cncn2)cc1)c1cc(Cl)cc(Cl)c1Cl` (stereo not shown) [DC17] showed a mortality at 50 µg/cm2 [1] of 50 to 100% and a mortality at 50 µg/cm2 [2] of 50 to 100%.

Work on `FC(F)(F)C(/C=C/c1ccc(-n2cncn2)cc1)c1cc(Cl)c(Cl)c(Cl)c1` (stereo not shown) [DC18] yielded a mortality at 50 µg/cm2 [1] of 50 to 100% and a mortality at 50 µg/cm2 [2] of 50 to 100%.

Work on `FC(F)(F)c1cc(Cl)cc(C(/C=C/c2ccc(-n3cncn3)cc2)C(F)(F)F)c1` (stereo not shown) [DC19] yielded a mortality at 50 µg/cm2 [1] of 50 to 100% and a mortality at 50 µg/cm2 [2] of 50 to 100%.

With `COc1c(Cl)cc(C(/C=C/c2ccc(-n3cncn3)cc2)C(F)(F)F)cc1Cl` (stereo not shown) [DC20] the mortality at 50 µg/cm2 [1] was 0% and the mortality at 50 µg/cm2 [2] was 50 to 100%.

In the case of `Cc1ncn(-c2ccc(/C=C/C(c3cc(Cl)cc(Cl)c3)C(F)(F)F)cc2)n1` (stereo not shown) [DC21], the mortality at 50 µg/cm2 [1] is reported as 0% and the mortality at 50 µg/cm2 [2] is reported as 0%.

Work on `O=[N+]([O-])c1ncn(-c2ccc(/C=C/C(c3cc(Cl)cc(Cl)c3)C(F)(F)F)cc2)n1` (stereo not shown) [DC22] yielded a mortality at 50 µg/cm2 [1] of 0% and a mortality at 50 µg/cm2 [2] of 0%.

Compound `Cc1ncnn1-c1ccc(/C=C/C(c2cc(Cl)cc(Cl)c2)C(F)(F)F)cc1` (stereo not shown) [DC23] has a mortality at 50 µg/cm2 [1] of 50 to 100% and a mortality at 50 µg/cm2 [2] of 0%.

`CC(=O)c1ncnn1-c1ccc(/C=C/C(c2cc(Cl)cc(Cl)c2)C(F)(F)F)cc1` (stereo not shown) [DC24] was tested, and the mortality at 50 µg/cm2 [1] was 0% and the mortality at 50 µg/cm2 [2] was 0%.

`CSc1ncnn1-c1ccc(/C=C/C(c2cc(Cl)cc(Cl)c2)C(F)(F)F)cc1` (stereo not shown) [DC25] gave a mortality at 50 µg/cm2 [1] of 0% and a mortality at 50 µg/cm2 [2] of 0%.

`O=C(c1ncnn1-c1ccc(/C=C/C(c2cc(Cl)cc(Cl)c2)C(F)(F)F)cc1)C1CC1` (stereo not shown) [DC26] was tested, and the mortality at 50 µg/cm2 [1] was 0% and the mortality at 50 µg/cm2 [2] was 0%.

With `CS(=O)(=O)c1ncnn1-c1ccc(/C=C/C(c2cc(Cl)cc(Cl)c2)C(F)(F)F)cc1` (stereo not shown) [DC27] the mortality at 50 µg/cm2 [1] was 0% and the mortality at 50 µg/cm2 [2] was 0%.

`N#Cc1cc(/C=C/C(c2ccc(Cl)c(Cl)c2)C(F)(F)F)ccc1-n1cncn1` (stereo not shown) [DC28] showed a mortality at 50 µg/cm2 [1] of 50 to 100% and a mortality at 50 µg/cm2 [2] of 50 to 100%.

In the case of `N#Cc1cc(/C=C/C(c2cc(Cl)cc(Cl)c2)C(F)(F)F)ccc1-n1cncn1` (stereo not shown) [DC29], the mortality at 50 µg/cm2 [1] is reported as 50 to 100% and the mortality at 50 µg/cm2 [2] is reported as 50 to 100%.

`N#Cc1cc(/C=C/C(c2cc(C(F)(F)F)cc(C(F)(F)F)c2)C(F)(F)F)ccc1-n1cncn1` (stereo not shown) [DC30] showed a mortality at 50 µg/cm2 [1] of 50 to 100% and a mortality at 50 µg/cm2 [2] of 50 to 100%.

With `N#Cc1cc(/C=C/C(c2cc(Cl)c(Cl)c(Cl)c2)C(F)(F)F)ccc1-n1cncn1` (stereo not shown) [DC31] the mortality at 50 µg/cm2 [1] was 50 to 100% and the mortality at 50 µg/cm2 [2] was 50 to 100%.
